One assay concerns Stat signaling. Put plainly: Miniature drug screen and inhibitor titration in U937 cells: Stat signaling overall (pStat1, pStat3, pStat5). It counts as cell-based, human. Particulars: for order of selectivity for the cytokine pathways: titration (Jak inhibitor I 0.005-5 μM, WHI-P154 0.1-100 μM), 30 min before stimulation. The procedure: (§1) FIG. 4. FCB of 36 samples increases throughput of phospho flow. (a) Efficient barcoding of 36 samples. U937 cells were left untreated or were stimulated with IFN-γ (10 ng/ml) for 10 min. Unstimulated and stimulated samples were added to a 96-well plate in an alternating pattern across each row and down each column and labeled with six concentrations of Pacific Blue-NHS (0, 0.15, 0.6, 2.5, 10 or 40 μg/ml) and/or Alexa 488-NHS (0, 0.07, 0.3, 1.3, 5 or 20 μg/ml). […] Reverse deconvolution (bottom panel) of all stimulated or unstimulated cells produced the expected checkerboard pattern. (b) Miniature drug screen and titration of inhibitors with FCB. U937 cells were treated with various drugs before stimulation with IFN-γ, IL-6 and GM-CSF (stimulation). WHI-P154 (WHI; 50 μM), PD98059 (PD; 20 μM), Jak inhibitor I (Jak-1; 5 μM), and wortmannin (Wort; 2 μM) were added to the cells 30 min before stimulation; samples were barcoded with Pacific Blue-NHS and simultaneously stained with pStat1 Alexa 488, pStat3 PE and pStat5 Alexa 647 (left three plots). Jak inhibitor I was added at 0.005, 0.05, 0.5 or 5 μM for 30 min before stimulation (middle). WHI-P154 was added at 0.1, 1, 10 or 100 μM for 30 min before stimulation (right). Non-drug-treated positive and negative controls are included within each FCB staining set, allowing for internal normalization of each staining cocktail.
We next applied the FCB platform to a drug screening profile, as a real-world example of how the technique could be used to enhance analysis throughput and reproducibility (FIG. 4b). Using Pacific Blue as the FCB reagent, we pretreated U937 cells with four small-molecule inhibitors: wortmannin (a PI-3 kinase inhibitor), Jak inhibitor I (an inhibitor of all Jak kinases), PD98059 (an MEK inhibitor) and WHI-P154 (a Jak3 inhibitor). We then stimulated the cells simultaneously with IFN-γ, IL-6 and granulocyte-monocyte colony-stimulating factor (GM-CSF) to induce pStat1, pStat3 and pStat5, respectively. […]

In assay [1] the test system is Stat1 and ERK phosphorylation. Briefly: 96-well FCB drug screen in Jurkat cells: class of drug activity, pERK versus pStat1. The class given is cell-based, human. Particulars: 20 μM, 45 min before stimulation with anti-CD3, anti-CD28 and IFN-γ for 5 min.
Experimental: (a) Layout of screening experiment. Jurkat cells were treated with 70 known small-molecule kinase or phosphatase inhibitors (20 μM), Jak inhibitor I (2 μM) or U0126 (20 μM) for 45 min before stimulation with 5 μg/ml anti-CD3 and anti-CD28 and 10 ng/ml IFN-γ for 5 min. […] After fixation, cells were barcoded with Alexa 700-NHS (0, 0.06, 0.25 or 1 μg/ml) to delineate the four quadrants of the 96-well plate. Each quadrant was subdivided into four rows labeled with Pacific Blue-NHS (0, 0.04, 0.2 or 1 μg/ml) and six columns labeled with Alexa 488-NHS (0, 0.02, 0.06, 0.18, 0.5 or 1.5 μg/ml). […] (c) Heat map representation of percent inhibition of ERK and Stat1 phosphorylation. […] Wells with black triangles were excluded from the analysis due to high fluorescence of the drug in the phospho-protein fluorescence channels. […] (d) Two-dimensional plots of pERK versus pStat1.
For this purpose, we designed an FCB labeling scheme using three dyes to barcode 96 samples (FIG. 5). With this FCB setup, we screened a small-molecule library of 70 previously characterized kinase and phosphatase inhibitors for their ability to inhibit T-cell receptor-mediated ERK phosphorylation and/or Stat1 phosphorylation induced by IFN-γ (FIG. 5a). After addition of inhibitors, stimulation, fixation and barcoding, we combined all 96 samples into one sample and stained it with phycoerythrin-labeled antibodies against phosphorylated ERK (pERK PE) and pStat1 Alexa 647 antibodies (for a total of five fluorophores: three FCB reagents and two antibodies).
We cultured U937 cells, a monocytic lymphoma cell line, and Jurkat T cells in RPMI-1640 containing 10% fetal bovine serum, 100 U/ml penicillin, 100 μg/ml streptomycin, 1 mM L-glutamine (RPMI-10), and stimulated cells at a density of 10^6 cells/ml. […] We stimulated cells in 96-well deep block plates (2-ml capacity) by adding the appropriate cytokine or stimulus directly to the culture medium without prior starvation. After a 10-15-min incubation, we fixed cells with 1.6% formaldehyde for 10 min and then proceeded with the FCB phospho flow protocol below. Where inhibitors were used, we added these compounds 30 min before stimulation.
We performed phospho flow as previously described (ref. 4) with slight modifications to include FCB labeling. After formaldehyde fixation, we resuspended samples in 100% 20-25° C. methanol (typically 500 μl per 10^6 cells) containing the indicated concentration of Alexa Fluor or Pacific Blue succinimidyl esters, with each sample receiving a different concentration of fluorescent dye.
Assay [2] relates to Stat1 and ERK phosphorylation. Briefly: Titration of four screening hits in Jurkat cells using six-sample FCB (pStat1, pERK). It counts as cell-based, human. Particulars: 30 min before IFN-γ (10 ng/ml) and anti-CD3/28 (5 μg/ml each). The procedure:
FIG. 8. Detailed titration of four hits from Jurkat drug screening experiment (FIG. 5). a) Four compounds: Bay11-7082, Indirubin-3-monoxime, PP2, and ZM449829 were added to Jurkat cells at different concentrations for 30 min prior to stimulation with IFN-γ (10 ng/ml) and anti-CD3/28 (5 μg/ml each). The cells were fixed and permeabilized, then stained with pStat1 Ax647 and pERK Ax488 antibodies. Percent inhibition of phosphorylation was plotted against concentration of drugs and fitted with a logistic regression curve to obtain IC50 values. Numbers in the top right of each plot are the IC50 value in μM units. b) Lysates were prepared from the same cells used for phospho flow and analyzed by western blot with pStat1 and pERK antibodies. Drugs were applied at 20 μM (same concentration as initial screen) for western blot analysis.
Because a few of these hits were unexpected, we performed titration experiments using six-sample FCB on four of the compounds to validate the results (FIG. 8).
We calculated fold change of phosphorylation upon stimulation by dividing median fluorescence intensity (MFI) of stimulated samples by the MFI of unstimulated samples: FC=MFIstim/MFIunstim. For heat map analysis, FC was converted to log2 values to enhance visualization and so that samples showing no change have a value of zero. To measure drug activity, we calculated percent inhibition as follows: Percent Inhibition=1−((MFItreated ? MFIunstim)/(MFIstim ? MFIunstim)), where “treated” denotes drug treated (and stimulated) samples, “stim” denotes control stimulated (non drug treated) samples, and “unstim” denotes control unstimulated (non drug treated) samples. We calculated Z′-factor from control stimulated and unstimulated samples by the following: Z′-factor=1 ? ((3[…]SDstim 3[…]SDunstim)/(meanstim ? meanunstim)), where “SD” denotes standard deviation of the mean, and “mean” denotes the mean of either stimulated or unstimulated MFI values. Z′-factor is an indication of the robustness and suitability of an assay for high throughput screening, with values from 0.5 to 1 indicating an excellent assay, 0 to 0.5 indicating a usable assay, and less than 0 indicating the assay has too much noise or inadequate dynamic range.

The subject of a further assay is Stat1 phosphorylation. Briefly: Miniature drug screen by FCB phospho flow in U937 cells: IFN-γ-induced pStat1. The class given is cell-based, human. Particulars: added 30 min before stimulation with IFN-γ, IL-6 and GM-CSF. The procedure:
as §1, with “cocktail. […]” for “cocktail.”

In the next assay the test system is Stat3 phosphorylation. Briefly: Miniature drug screen by FCB phospho flow in U937 cells: IL-6-induced pStat3. The class given is cell-based, human. Particulars: added 30 min before stimulation with IFN-γ, IL-6 and GM-CSF. The procedure:
as §1, with “cocktail. […]” for “cocktail.”

The subject of another assay is Stat5 phosphorylation. Briefly: Miniature drug screen by FCB phospho flow in U937 cells: GM-CSF-induced pStat5. The class given is cell-based, human. Particulars: added 30 min before stimulation with IFN-γ, IL-6 and GM-CSF. The procedure: as §1, with “cocktail. […]” for “cocktail.”
For assay [3], the system named is pStat1 in CD4+ and CD4− T cells. Put plainly: IFN-γ time course and dose titration in primary mouse splenocytes: pStat1 in T cells. It counts as cell-based. The procedure:
(§2) FIG. 6. Use of FCB to label primary cell populations. […] (a) Mouse splenocytes were stimulated with different concentrations of IFN-γ across each row (0, 0.17, 0.5, 1.5, 4.5, 13, 40, 120, 370, 1,100, 3,300 or 10,000 pg/ml) for 0, 4, 8, 15, 30, 60, 120 or 180 min (each row representing a different time point). Cells were barcoded with three FCB markers (Alexa 700, Alexa 488 and Pacific Blue as in FIG. 5) during permeabilization, and stained with CD11b Cy5.5PerCP, B220 QD605, TCR PE, CD4 Cy7PE and pStat1 Alexa 647. Cell types were first gated based on surface markers to obtain CD11b-hi cells (neutrophils), B cells, CD4+ T cells and CD4-T cells. Each cell type was then deconvoluted to obtain the original 96-well plate layout. (b) Heat map representation showing the fold change in pStat1 levels on a log 2 scale across dose (from left to right) and time gradients (top to bottom). Yellow represents maximal induction, red indicates half-maximal induction, and black indicates no induction. Note that the scale for each cell type is different owing to different maximal induction of Stat1 phosphorylation.
(§3) Primary cells, and diseased cells from patients, are a limited resource and are not amenable to the majority of high-throughput screening systems. Therefore, we tested whether FCB could be applied to large-scale signaling profiling of heterogeneous populations of normal and/or diseased cells (refs. 13, 14). To this end, we stimulated primary mouse splenocytes with IFN-γ in a 96-well plate format, and asked whether different cell types show different kinetics and thresholds of responsiveness to IFN-γ. We performed a time course of stimulation across 11 different concentrations of the cytokine. Here, to discriminate cell types in addition to measuring phosphorylation levels, we stained the cells with pStat1 Alexa 647 and four surface marker antibodies: B220, TCR, CD4 and CD11b (for a total of eight colors: three FCB markers, four surface antibodies and one phospho antibody). We first gated cell types based on surface marker expression to obtain B cells, CD4+ T cells, CD4− T cells and CD11b-hi cells (neutrophils) 25 (FIG. 6a). We then deconvoluted each cell type to obtain the original plate layout.
We cultured U937 cells, a monocytic lymphoma cell line, and Jurkat T cells in RPMI-1640 containing 10% fetal bovine serum, 100 U/ml penicillin, 100 μg/ml streptomycin, 1 mM L-glutamine (RPMI-10), and stimulated cells at a density of 10^6 cells/ml. We obtained splenocytes from BALB/c mice by homogenization and resuspended them in RPMI-10 at 5 106 cells/ml. Splenocytes were rested for 2-3 h at 37° C. before stimulation13. We stimulated cells in 96-well deep block plates (2-ml capacity) by adding the appropriate cytokine or stimulus directly to the culture medium without prior starvation. […]

In another assay the test system is pStat1 in B cells. Put plainly: IFN-γ time course and dose titration in primary mouse splenocytes: pStat1 in B cells. It counts as cell-based. As for the experimental part: as §2
as §3, with “We first gated cell types based on surface marker expression to obtain B cells, CD4+ T cells, CD4− T cells and CD11b-hi cells (neutrophils) 25 (FIG. 6a). We then deconvoluted each cell type to obtain the original plate layout.” left out

In assay [4] the test system is pStat1 in CD11b-hi cells (neutrophils). Put plainly: IFN-γ time course and dose titration in primary mouse splenocytes: pStat1 in neutrophils. The class given is cell-based. As for the experimental part: as §2
as §3, with “We first gated cell types based on surface marker expression to obtain B cells, CD4+ T cells, CD4− T cells and CD11b-hi cells (neutrophils) 25 (FIG. 6a). We then deconvoluted each cell type to obtain the original plate layout.” left out

As for `COc1cccc(-c2cc(=O)c3ccccc3o2)c1N` [PD98059], in the assay with Stat signaling (20 μM, added 30 min before stimulation with IFN-γ, IL-6 and GM-CSF), the “effects on Stat signaling” value is reported as “no or minor effects”.
Regarding `CC(C)(C)n1nc(-c2ccc(Cl)cc2)c2c(N)ncnc21` [PP2], in [1], the “class of drug activity (selectivity, Stat1 versus ERK phosphorylation)” value is “selectively inhibited ERK phosphorylation”. Moreover, the “selectivity for ERK (over Stat1) phosphorylation” value in assay [2] is listed as “extremely selective”.
For `N#CC(=C(/N)Sc1ccccc1N)/C(C#N)=C(\N)Sc1ccccc1N` [U0126], the “class of drug activity (selectivity, Stat1 versus ERK phosphorylation)” value in [1] was “selectively inhibited ERK phosphorylation”.
Take `COc1cc2ncnc(Nc3ccc(O)c(Br)c3)c2cc1OC` [WHI-P154]: the “inhibition of Stat1 phosphorylation” value in the assay with Stat1 phosphorylation (50 μM) was found to be 80%. Moreover, the “inhibition of Stat3 phosphorylation” value in the assay with Stat3 phosphorylation (50 μM) is 100%. The “inhibition of Stat5 phosphorylation” value in the assay with Stat5 phosphorylation (50 μM) is 40%. Moreover, the “order of selectivity for the cytokine pathways” value in the assay on Stat signaling is on record as “IL-6-Stat3>IFN-γ-Stat1>GM-CSF-Stat5”.
`C=CC(=O)c1ccc2ccccc2c1` [ZM-449829]: the “class of drug activity (selectivity, Stat1 versus ERK phosphorylation)” value in [1] is “inhibited both Stat1 and ERK phosphorylation potently”. Besides, the “selectivity between ERK and Stat1 phosphorylation” value in [2] is reported as “little selectivity”.
Take `O=C1Nc2ccccc2/C1=C1/Nc2ccccc2/C1=N\O` [indirubin-3′-monooxime]: in assay [1], the “class of drug activity (selectivity, Stat1 versus ERK phosphorylation)” value is recorded as “selectivity for inhibiting Stat1 phosphorylation”. Besides, the “selectivity for Stat1 (over ERK) phosphorylation” value in [2] is “extremely selective”.
For the molecule `CCCCCCCCCCCCC/C=C/[C@@H](O)[C@@H](N)CO` [sphingosine], the “class of drug activity (selectivity, Stat1 versus ERK phosphorylation)” value in [1] was “selectively inhibited ERK phosphorylation”.
Consider “IFN-γ: mouse IFN-γ from BD Pharmingen, cytokine used to stimulate primary mouse splenocytes”, for which the “half-maximal response concentration (EC50), pStat1 induction” value in [3] (CD4+ T cells of mouse splenocytes) and in [3] (CD4− T cells of mouse splenocytes) was 50 pg/ml each time. For the same molecule, the “maximum induction of pStat1” value in assay [3] (CD4+/CD4− T cells of mouse splenocytes) is on record as 19-23 fold; in the assay with pStat1 in B cells it was 19-23 fold; in assay [4], 4.5 fold. Besides, the “time of maximal pStat1 induction” value was 30 min in assay [3] (T cells of mouse splenocytes), 8-30 min in the assay with pStat1 in B cells and 30-60 min in assay [4]. The “EC50, pStat1 induction” value was found to be 220 pg/ml in the assay with pStat1 in B cells (B cells of mouse splenocytes) and 400 pg/ml in assay [4] (neutrophils (CD11b-hi cells) of mouse splenocytes).
Take Jak inhibitor I: the “inhibition of Stat1 phosphorylation” value with Stat1 phosphorylation (5 μM) is listed as “completely abrogating”. Also, the “inhibition of Stat3 phosphorylation” value in the assay on Stat3 phosphorylation (5 μM) is listed as “completely abrogating”. The “inhibition of Stat5 phosphorylation” value with Stat5 phosphorylation (5 μM) is given as “completely abrogating”. The “order of selectivity for the cytokine pathways” value with Stat signaling was “IL-6-Stat3>IFN-γ-Stat1>GM-CSF-Stat5”.

Values taken from patent publication US8003312B2, “Multiplex cellular assays using detectable cell barcodes” (The Board of Trustees of the Leland Stanford Junior …, priority 2007, dated 2011).
